The target in assay [1] is tyrosine hydroxylase (TH) (Homo sapiens, UniProt P07101). The conditions noted are these: concentration of T at which the reaction proceeds at 50% of the maximal rate; cited from earlier work.
The test system of a further assay is equine laminitis. As to the kind of experiment: Oral treatment of horses with laminitis (case examples). It counts as in vivo, horse. As to the method:
The preferred form of practicing the present method will now be described for a horse weighing approximately 500 kg. In practicing the present method, the four main ingredients that are administered to prevent, treat and/or cure laminitis are: choline bitartrate, L-tyrosine, Niacin, and d-Calcium Pantothenate. These ingredients may be administered in corresponding approximate ratios of 40:41:8:16 (by weight). In the preferred embodiment, an approximately 35 day supply of the treatment includes 80 grams of choline bitartrate, 82 grams of L-tyrosine, 16 grams of niacin, and 32 grams of d-calcium pantothenate. Each dose for oral administration contains approximately 1127.5 mg of choline bitartrate, 1155.6 mg of L-tyrosine, 225.5 mg of niacin, and 451.1 mg of d-Calcium pantothenate. Preferably, this dosage is administered twice per day to an affected horse.
A quarter-horse mare first experienced laminitis at age 5 after exposure to septic waste from a failing septic field. This first bout with laminitis lasted roughly two years. At age 9, the mare was left on a heavily grazed pasture for one day and developed laminitis, the second onset of the disease during its life, presumably from exposure to fructans in grass. Transportation of the mare exacerbated the laminitis symptoms. The mare recovered gradually, but spent a lot of time lying down. […]

Another assay deals with NE synthesis. The settings on record: analogous to the KM of the overall reaction; read-out: concentration of tyrosine at the half-maximal rate of NE synthesis; cited from earlier work.

The term Km denotes the concentration of substrate that gives half-maximal velocity.

The structures appear in SMILES notation.

Sequence of tyrosine hydroxylase (TH) (P07101 whole entry): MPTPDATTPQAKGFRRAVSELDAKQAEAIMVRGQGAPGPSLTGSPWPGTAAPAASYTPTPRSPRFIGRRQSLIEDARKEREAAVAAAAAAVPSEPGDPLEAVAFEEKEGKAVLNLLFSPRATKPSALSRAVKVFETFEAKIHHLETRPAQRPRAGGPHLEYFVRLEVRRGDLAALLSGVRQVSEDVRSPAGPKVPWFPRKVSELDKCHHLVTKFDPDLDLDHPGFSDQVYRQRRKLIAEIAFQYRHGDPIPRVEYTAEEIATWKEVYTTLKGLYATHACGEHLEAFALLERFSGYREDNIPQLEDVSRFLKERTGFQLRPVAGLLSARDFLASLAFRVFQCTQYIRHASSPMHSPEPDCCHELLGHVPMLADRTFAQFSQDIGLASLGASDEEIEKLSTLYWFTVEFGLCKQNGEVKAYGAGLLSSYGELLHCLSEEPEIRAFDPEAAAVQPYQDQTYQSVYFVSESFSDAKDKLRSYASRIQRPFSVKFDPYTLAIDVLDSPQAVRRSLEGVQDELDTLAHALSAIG

For the compound `N[C@@H](Cc1ccc(O)cc1)C(=O)O` [tyrosine, 4-hydroxyphenylalanine], the Km in assay [1] is about 25 µM. Further, the “condition of the mare with laminitis” value in the assay with equine laminitis (Example 1, quarter-horse mare, second onset of laminitis, initial dosing, daily for nearly 90 days) is on record as “improved the condition”. In addition, in the assay with equine laminitis (Example 2, ten year-old mare, recommended dosage after the bout), the recurrence of laminitis result is “did not re-experience laminitis”. The EC50 in the assay on NE synthesis is 10 to 40 µM.

The record behind these values is patent US20100227895A1, “METHOD FOR TREATING EQUINE LAMINITIS” (MPCO- THE MAGIC POWDER COMPANY, priority 2009, published 2010).
